For the test, the system named is Escherichia coli. The experiment in a line: Antibacterial activity against Escherichia coli ATCC 25922 at 50 ug/disk by agar diffusion assay. Type of test: functional. As to conditions: read-out: IZ. (In general: A growth-free zone around the sample is the usual read-out of agar diffusion tests.)

SMILES strings stand for the structures.

For the molecule `C[n+]1cc2[nH]c3ccccc3c2cc1C(=O)[O-]`, the zone of inhibition at 50 µg/disc worked out at 11 mm.

The values above are taken from ChEMBL document CHEMBL1141849, “A beta-carboline alkaloid from the soft coral lignopsis spongiosum” (1999).
